# US20130202698A1 (NANJING SANHOME PHARMACEUTICAL CO., LTD., priority 2005, published 2013)
# Read-outs that look alike come from different tables or passages of the source. Marks after values point to notes of the source that are not given here.
# Columns and labels:
# glutamate = test: Effects on excitatory neurotransmitter glutamate levels in mice brain; type: in vivo
# From the text: In another experiment, the effects on excitatory neurotransmitter levels by levo- and dextro-ornidazole were compared.
# [1] = tested on: thiosemicarbazide-induced convulsion; test: Anticonvulsant effects on thiosemicarbazide-induced convulsion in mice; type: in vivo; settings: n=10; for Convulsion Latency / Time to Death: Mean ± SD
# Procedure: (§1) Mice are randomized into 4 treatment groups (n=10 with half male and half female): dextro- or levo-ornidazole (dosage 40, 80, 160 mg/kg), vehicle control group (15% propylene glycol in 0.9% sodium chloride, 20 mL/kg) and the positive control group. Animals are treated with known convulsion-inducing agents, followed by the drug or vehicle control given intravenously. The dose volume is 20 mL/kg with an infusion rate of 0.2 mL/10 seconds. The anticonvulsant effects are observed and recorded (see Tables 2-6).
# [2] = Phase II clinical trial, oral tablets, departments of stomatology, adverse events; type: in vivo, human; settings: human, in vivo, po
# Procedure: (§2) Double-blinded randomized controlled trials were carried out to compare the adverse events of oral levo-ornidazole with racemate treatment groups. Two separate studies were conducted for patients with infections from either department of stomatology or obstetrics/gynecology.
# [3] = Phase II clinical trial, oral tablets, departments of obstetrics/gynecology, adverse events; type: in vivo, human; settings: human, in vivo, po
# Procedure: as §2
# [4] = rat, in vivo
# [5] = Acute toxicity in mice (LD50); settings: mouse, in vivo
# [6] = tested on: spontaneous activities of mice; settings: both, mouse, in vivo, iv
# [7] = tested on: Strychnine-induced convulsion; test: Anticonvulsant effects on Strychnine-induced convulsion in mice; type: in vivo; settings: n=10; for Convulsion Latency: Mean ± SD
# Procedure: as §1
structure (smiles),measurement,setting,value
"Cc1ncc([N+](=O)[O-])n1C[C@H](O)CCl [L-ornidazole, S-(−)-ornidazole]",Effect on glutamate levels in cerebrum and cerebellum,"glutamate; FIG. 4, listed as Levo-ornidazole",little effect
same,Effect on glutamate levels in cerebrum and cerebellum,"glutamate; FIG. 4, listed as levo-ornidazole",little effects
same,Convulsion Latency,[1]; 40 mg/kg i.v.,77.1 ± 16.8 min
same,Time to Death,[1]; 40 mg/kg i.v.,122.6 ± 29.8 min
same,Convulsion Latency,[1]; 80 mg/kg i.v.,85.0 ± 30.9 min
same,Time to Death,[1]; 80 mg/kg i.v.,116.7 ± 38.7 min
same,Mortality Rate,[1]; 160 mg/kg i.v.,9/10^##
same,Rate of Convulsion,[1]; 160 mg/kg i.v.,9/10^##
same,"Plasma protein binding, levo- vs dextro-ornidazole",plasma protein,Similar
same,"Bloating, # of Patients with AE",[2],0
same,"Bloating, Incidence (%)",[2],0.00%
same,"Constipation, # of Patients with AE",[2],1
same,"Constipation, Incidence (%)",[2],0.72%
same,"Drowsy, # of Patients with AE",[2],0
same,"Drowsy, Incidence (%)",[2],0.00%
same,"Dry mouth, # of Patients with AE",[2],0
same,"Dry mouth, Incidence (%)",[2],0.00%
same,"Headache, # of Patients with AE",[2],0
same,"Headache, Incidence (%)",[2],0.00%
same,"Hypersomnia, # of Patients with AE",[2],0
same,"Hypersomnia, Incidence (%)",[2],0.00^# %
same,"Hypodynamia, # of Patients with AE",[2],0
same,"Hypodynamia, Incidence (%)",[2],0.00%
same,"Loss of appetite, # of Patients with AE",[2],0
same,"Loss of appetite, Incidence (%)",[2],0.00%
same,"Nausea, # of Patients with AE",[2],4
same,"Nausea, Incidence (%)",[2],2.88%
same,"Palpitation, # of Patients with AE",[2],0
same,"Palpitation, Incidence (%)",[2],0.00%
same,Patients with adverse events (total),[2],5 patients
same,"Pruritus, # of Patients with AE",[2],0
same,"Pruritus, Incidence (%)",[2],0.00%
same,"Rash, # of Patients with AE",[2],0
same,"Rash, Incidence (%)",[2],0.00%
same,"Sourregurgitation, # of Patients with AE",[2],0
same,"Sourregurgitation, Incidence (%)",[2],0.00%
same,"Stomach discomfort, # of Patients with AE",[2],0
same,"Stomach discomfort, Incidence (%)",[2],0.00^# %
same,"Stupor, # of Patients with AE",[2],0
same,"Stupor, Incidence (%)",[2],0.00%
same,Total incidence rate of adverse events,[2],3.60%
same,"Vertigo, # of Patients with AE",[2],0
same,"Vertigo, Incidence (%)",[2],0.00%
same,"Vomiting, # of Patients with AE",[2],0
same,"Vomiting, Incidence (%)",[2],0.00%
same,"Abdominal pain, # of Patients with AE",[3],0
same,"Abdominal pain, Incidence (%)",[3],0.00%
same,"Appetite drop, # of Patients with AE",[3],0
same,"Appetite drop, Incidence (%)",[3],0.00%
same,"Bitter taste, # of Patients with AE",[3],0
same,"Bitter taste, Incidence (%)",[3],0.00%
same,"Bloating, # of Patients with AE",[3],0
same,"Bloating, Incidence (%)",[3],0.00%
same,"Blurred vision, # of Patients with AE",[3],0
same,"Blurred vision, Incidence (%)",[3],0.00%
same,"Breast tenderness, # of Patients with AE",[3],0
same,"Breast tenderness, Incidence (%)",[3],0.00%
same,"Chest tightness, # of Patients with AE",[3],0
same,"Chest tightness, Incidence (%)",[3],0.00%
same,"Dazzle, # of Patients with AE",[3],0
same,"Dazzle, Incidence (%)",[3],0.00%
same,"Diarrhea, # of Patients with AE",[3],0
same,"Diarrhea, Incidence (%)",[3],0.00%
same,"Dizziness, # of Patients with AE",[3],0
same,"Dizziness, Incidence (%)",[3],0.00%
same,"Dry mouth, # of Patients with AE",[3],0
same,"Dry mouth, Incidence (%)",[3],0.00%
same,"Headache, # of Patients with AE",[3],0
same,"Headache, Incidence (%)",[3],0.00%
same,"Hypersomnia, # of Patients with AE",[3],0
same,"Hypersomnia, Incidence (%)",[3],0.00^## %
same,"Hypodynamia, # of Patients with AE",[3],0
same,"Hypodynamia, Incidence (%)",[3],0.00%
same,"Nausea, # of Patients with AE",[3],1
same,"Nausea, Incidence (%)",[3],0.70^# %
same,"Oral malodor, # of Patients with AE",[3],1
same,"Oral malodor, Incidence (%)",[3],0.70%
same,Patients with adverse events (total),[3],5 patients
same,"Rash, # of Patients with AE",[3],1
same,"Rash, Incidence (%)",[3],0.70%
same,"Stomach ache, # of Patients with AE",[3],1
same,"Stomach ache, Incidence (%)",[3],0.70%
same,"Stomach discomfort, # of Patients with AE",[3],1
same,"Stomach discomfort, Incidence (%)",[3],0.70%
same,Total incidence rate of adverse events,[3],3.50%
same,"Vertigo, # of Patients with AE",[3],0
same,"Vertigo, Incidence (%)",[3],0.00^## %
same,"Vomiting, # of Patients with AE",[3],0
same,"Vomiting, Incidence (%)",[3],0.00%
same,"Distribution in different region of brain, levo- vs dextro-ornidazole",[4],Similar
same,LD50,[5]; intravenous injection,332 mg/kg
same,LD50,"[5]; ip, intraperitoneal injection",1380 mg/kg
same,LD50,[5]; oral gavage,1070 mg/kg
same,Spontaneous Activities (per 5 min),"[6]; 40 mg/kg, 0.5 h",89 ± 48 per 5 min
same,Spontaneous Activities (per 5 min),"[6]; 40 mg/kg, 1 h",75 ± 40 per 5 min
same,Spontaneous Activities (per 5 min),"[6]; 40 mg/kg, 2 h",69 ± 29 per 5 min
same,Spontaneous Activities (per 5 min),"[6]; 40 mg/kg, 3 h",63 ± 16 per 5 min
same,Spontaneous Activities (per 5 min),"[6]; 40 mg/kg, 4 h",87 ± 43 per 5 min
same,Spontaneous Activities (per 5 min),"[6]; 80 mg/kg, 0.5 h",59 ± 27 per 5 min
same,Spontaneous Activities (per 5 min),"[6]; 80 mg/kg, 1 h",47 ± 30 per 5 min
same,Spontaneous Activities (per 5 min),"[6]; 80 mg/kg, 2 h",44 ± 25 per 5 min
same,Spontaneous Activities (per 5 min),"[6]; 80 mg/kg, 3 h",58 ± 36 per 5 min
same,Spontaneous Activities (per 5 min),"[6]; 80 mg/kg, 4 h",64 ± 36 per 5 min
same,Spontaneous Activities (per 5 min),"[6]; 160 mg/kg, 0.5 h",40 ± 31 per 5 min
same,Spontaneous Activities (per 5 min),"[6]; 160 mg/kg, 1 h",45 ± 25 per 5 min
same,Spontaneous Activities (per 5 min),"[6]; 160 mg/kg, 2 h",38 ± 18 per 5 min
same,Spontaneous Activities (per 5 min),"[6]; 160 mg/kg, 3 h",53 ± 23 per 5 min
same,Spontaneous Activities (per 5 min),"[6]; 160 mg/kg, 4 h",58 ± 26 per 5 min
same,Convulsion Latency,[7]; 40 mg/kg i.v.,5.3 ± 2.3 min
same,Mortality Rate,[7]; 40 mg/kg i.v.,10/10
same,Convulsion Latency,[7]; 80 mg/kg i.v.,7.5 ± 3.3 min
same,Mortality Rate,[7]; 80 mg/kg i.v.,10/10
same,Convulsion Latency,[7]; 160 mg/kg i.v.,8.6 ± 2.3 min
same,Mortality Rate,[7]; 160 mg/kg i.v.,6/10^#
